# Experimental data published in article PMC11157767 (Molecular Cancer, 2024).
# Tested on: TFG-MET allograft tumors
# Assay: RNA-sequencing, differential expression and GSEA of TFG-MET allograft tumors
# Assay type: in vivo, mouse
# Conditions: GSEA CAP vs Veh, C5 GO CC
# Description: Error bars display standard error of mean, statistical significance was determined using t-test analysis. (****;p<0.0001, ***;p<0.001, **;p<0.01, *;p<0.05). […] Each dot represents an individual replicate. Error bars display standard error of the mean.
# Each dot represents one gene.
smiles,measurement,setting,value
CNC(=O)c1ccc(-c2cnc3ncc(Cc4ccc5ncccc5c4)n3n2)cc1F [Capmatinib],NES GOCC_TRANSFERASE_COMPLEX,padj 2.19055e-16,-1.9384
same,NES GOCC_NUCLEAR_SPECK,padj 5.1503e-15,-2.161
same,NES GOCC_SPLICEOSOMAL_COMPLEX,padj 1.72395e-14,-2.415
same,NES GOCC_CHROMOSOME_TELOMERIC_REGION,padj 7.63768e-14,-2.533
same,NES GOCC_VACUOLAR_MEMBRANE,padj 7.95066e-13,2.04
same,NES GOCC_SMALL_SUBUNIT_PROCESSOME,padj 1.82971e-12,-2.75
same,NES GOCC_NUCLEAR_PORE,padj 1.03541e-11,-2.588
same,NES GOCC_FIBRILLAR_CENTER,padj 1.07393e-11,-2.424
same,NES GOCC_CHROMATIN,padj 1.91271e-11,-1.714
same,NES GOCC_PRERIBOSOME_LARGE_SUBUNIT_PRECURSOR,padj 2.94795e-11,-2.651
same,NES GOCC_METHYLTRANSFERASE_COMPLEX,padj 4.53721e-11,-2.484
same,NES GOCC_NUCLEAR_CHROMOSOME,padj 7.98955e-11,-2.219
same,NES GOCC_RESPIRATORY_CHAIN_COMPLEX,padj 1.33777e-10,2.821
same,NES GOCC_NUCLEAR_PERIPHERY,padj 2.5338e-10,-2.3519
same,NES GOCC_NUCLEAR_ENVELOPE,padj 3.91151e-9,-1.852
same,NES GOCC_RIBONUCLEOPROTEIN_GRANULE,padj 4.48536e-8,-2.04
same,NES GOCC_CATALYTIC_STEP_2_SPLICEOSOME,padj 5.62031e-8,-2.31
same,NES GOCC_INTRACELLULAR_PROTEIN_CONTAINING_COMPLEX,padj 6.31135e-8,-1.665
same,NES GOCC_TRANSCRIPTION_REGULATOR_COMPLEX,padj 7.03454e-8,-1.873
same,NES GOCC_CAJAL_BODY,padj 7.11025e-8,-2.347
same,NES GOCC_U2_TYPE_SPLICEOSOMAL_COMPLEX,padj 1.20627e-7,-2.187
same,NES GOCC_CILIUM,padj 1.31956e-7,1.633
same,NES GOCC_CONDENSED_CHROMOSOME,padj 1.56303e-7,-2.04
same,NES GOCC_IMMUNOGLOBULIN_COMPLEX,padj 1.76109e-7,2.5876
same,NES GOCC_CHROMOSOME_CENTROMERIC_REGION,padj 2.31902e-7,-2.023
same,NES GOCC_TRANSFERASE_COMPLEX_TRANSFERRING_PHOSPHORUS_CONTAINING_GROUPS,padj 2.54822e-7,-1.9355
same,NES GOCC_MOTILE_CILIUM,padj 6.10966e-7,2.148
same,NES GOCC_INNER_MITOCHONDRIAL_MEMBRANE_PROTEIN_COMPLEX,padj 1.03286e-6,2.0966
same,NES GOCC_HISTONE_METHYLTRANSFERASE_COMPLEX,padj 1.09294e-6,-2.238
same,NES GOCC_TERTIARY_GRANULE,padj 1.29564e-6,2.058
same,NES GOCC_NUCLEAR_MEMBRANE,padj 1.93407e-6,-1.855
same,NES GOCC_NADH_DEHYDROGENASE_COMPLEX,padj 2.62751e-6,2.526
same,NES GOCC_SM_LIKE_PROTEIN_FAMILY_COMPLEX,padj 3.06538e-6,-2.133
same,NES GOCC_LATE_ENDOSOME_MEMBRANE,padj 3.31031e-6,2.097
same,NES GOCC_RNA_POLYMERASE_COMPLEX,padj 3.74343e-6,-2.068
same,NES GOCC_HETEROCHROMATIN,padj 4.96006e-6,-2.172
same,NES GOCC_PROTEIN_ACETYLTRANSFERASE_COMPLEX,padj 5.11894e-6,-2.115
same,NES GOCC_CYTOPLASMIC_STRESS_GRANULE,padj 1.16359e-5,-2.152
same,NES GOCC_VACUOLAR_LUMEN,padj 1.16897e-5,1.934
same,NES GOCC_SECRETORY_GRANULE_MEMBRANE,padj 1.40276e-5,1.763
same,NES GOCC_OXIDOREDUCTASE_COMPLEX,padj 1.71689e-5,2.0601
same,NES GOCC_EXTERNAL_SIDE_OF_PLASMA_MEMBRANE,padj 2.05111e-5,1.72
same,NES GOCC_CONDENSED_CHROMOSOME_CENTROMERIC_REGION,padj 2.22571e-5,-1.979
same,NES GOCC_SNO_S_RNA_CONTAINING_RIBONUCLEOPROTEIN_COMPLEX,padj 3.58719e-5,-2.2
same,NES GOCC_PHAGOCYTIC_VESICLE,padj 3.73055e-5,1.9159
same,NES GOCC_HOST_CELLULAR_COMPONENT,padj 4.79591e-5,-2.0648
same,NES GOCC_SITE_OF_DNA_DAMAGE,padj 6.26347e-5,-2.003
same,NES GOCC_AZUROPHIL_GRANULE,padj 6.43287e-5,1.861
same,NES GOCC_KINETOCHORE,padj 6.63265e-5,-1.897
same,NES GOCC_AUTOPHAGOSOME,padj 6.99707e-5,2.034
same,NES GOCC_RNA_POLYMERASE_II_TRANSCRIPTION_REGULATOR_COMPLEX,padj 0.000108731,-1.813
same,NES GOCC_PML_BODY,padj 0.000125034,-1.9697
same,NES GOCC_EXORIBONUCLEASE_COMPLEX,padj 0.000154107,-2.113
same,NES GOCC_ENDORIBONUCLEASE_COMPLEX,padj 0.000165343,-2.09
same,NES GOCC_SMALL_NUCLEAR_RIBONUCLEOPROTEIN_COMPLEX,padj 0.000179714,-2.0229
same,NES GOCC_IMMUNOGLOBULIN_COMPLEX_CIRCULATING,padj 0.000186482,2.324
same,NES GOCC_TERTIARY_GRANULE_MEMBRANE,padj 0.000272562,2.004
same,NES GOCC_VESICLE_LUMEN,padj 0.000275827,1.602
same,NES GOCC_LYSOSOMAL_LUMEN,padj 0.000331136,1.858
same,NES GOCC_REPLICATION_FORK,padj 0.000358866,-1.947
same,NES GOCC_PRECATALYTIC_SPLICEOSOME,padj 0.000460788,-1.97
same,NES GOCC_EUCHROMATIN,padj 0.000526361,-2.018
same,NES GOCC_FICOLIN_1_RICH_GRANULE_MEMBRANE,padj 0.000558545,2.085
same,NES GOCC_CYTOCHROME_COMPLEX,padj 0.000649179,2.153
same,NES GOCC_PROTEIN_DNA_COMPLEX,padj 0.000678026,-1.836
same,NES GOCC_SITE_OF_DOUBLE_STRAND_BREAK,padj 0.000757696,-1.897
same,NES GOCC_PROTON_TRANSPORTING_TWO_SECTOR_ATPASE_COMPLEX,padj 0.000783651,2.098
same,NES GOCC_SPECIFIC_GRANULE,padj 0.000783651,1.663
same,NES GOCC_MLL1_2_COMPLEX,padj 0.000871379,-2.023
same,NES GOCC_RESPIRATORY_CHAIN_COMPLEX_IV,padj 0.000871379,2.188
same,NES GOCC_CILIARY_TRANSITION_ZONE,padj 0.000882106,1.976
same,NES GOCC_BLOOD_MICROPARTICLE,padj 0.000959119,1.774
same,NES GOCC_PHAGOCYTIC_VESICLE_MEMBRANE,padj 0.00129051,1.86
same,NES GOCC_SECONDARY_LYSOSOME,padj 0.00130287,2.219
same,NES GOCC_TRANSCRIPTION_ELONGATION_FACTOR_COMPLEX,padj 0.00152226,-1.897
same,NES GOCC_NUCLEAR_REPLICATION_FORK,padj 0.00173594,-1.935
same,NES GOCC_TELOMERASE_HOLOENZYME_COMPLEX,padj 0.00174948,-1.978
same,NES GOCC_H4_HISTONE_ACETYLTRANSFERASE_COMPLEX,padj 0.00185976,-1.863
same,NES GOCC_CILIARY_PLASM,padj 0.00189918,1.756
same,NES GOCC_POLYSOME,padj 0.00219768,-1.796
same,NES GOCC_PCG_PROTEIN_COMPLEX,padj 0.00279919,-1.842
same,NES GOCC_T_CELL_RECEPTOR_COMPLEX,padj 0.00319727,2.053
same,NES GOCC_U2_TYPE_CATALYTIC_STEP_2_SPLICEOSOME,padj 0.00319727,-1.927
same,NES GOCC_SIDE_OF_MEMBRANE,padj 0.00331543,1.318
same,NES GOCC_AZUROPHIL_GRANULE_LUMEN,padj 0.00386407,1.725
same,NES GOCC_EUKARYOTIC_TRANSLATION_INITIATION_FACTOR_3_COMPLEX,padj 0.00386407,-1.892
same,NES GOCC_PROTON_TRANSPORTING_TWO_SECTOR_ATPASE_COMPLEX_PROTON_TRANSPORTING_DOMAIN,padj 0.00392051,2.029
same,NES GOCC_SYNAPTIC_VESICLE_MEMBRANE,padj 0.00392051,1.708
same,NES GOCC_SMN_SM_PROTEIN_COMPLEX,padj 0.00460194,-1.879
same,NES GOCC_MHC_PROTEIN_COMPLEX,padj 0.00465351,2.03
same,NES GOCC_PLASMA_MEMBRANE_BOUNDED_CELL_PROJECTION_CYTOPLASM,padj 0.00477082,1.5011
same,NES GOCC_TRANSLATION_PREINITIATION_COMPLEX,padj 0.00477082,-1.882
same,NES GOCC_9PLUS2_MOTILE_CILIUM,padj 0.00505147,1.741
same,NES GOCC_FICOLIN_1_RICH_GRANULE,padj 0.00518961,1.502
same,NES GOCC_ENDOSOME_MEMBRANE,padj 0.00609112,1.2787
same,NES GOCC_PRESPLICEOSOME,padj 0.00659701,-1.8326
same,NES GOCC_ATPASE_COMPLEX,padj 0.007008,-1.657
same,NES GOCC_ENDOLYSOSOME,padj 0.00786364,1.964
same,NES GOCC_EUKARYOTIC_48S_PREINITIATION_COMPLEX,padj 0.00886352,-1.849
same,NES GOCC_PHAGOPHORE_ASSEMBLY_SITE,padj 0.00895831,1.892
same,NES GOCC_INTRACILIARY_TRANSPORT_PARTICLE,padj 0.00906928,1.972
same,NES GOCC_TRANSCRIPTION_REPRESSOR_COMPLEX,padj 0.00954254,-1.652
